Data on five molecules can be found in ChEMBL document CHEMBL5724558, “Image-based profiling of drug vulnerabilities in CRC organoids” (2024).

Where “and” joins values, the source holds several entries; their conditions need not be identical. Identical values can stand only once.

Type in all cases: functional, Homo sapiens
Holding throughout (set-up): dose or concentration left out as unconfirmed

Experiment [1] deals with Colon cancer organoid. The experiment in a line: Image-based profiling of donated chemical probes and chemogenomic kinase set in O06 CRC organoid. Image analysis is performed on the sum area metric, and the data were normalized to the DMSO control. After imaging the organoid viability is measured using the OneGloEX Luciferase Assay System. The normalized viability data and sum area are reported.

Experiment [2] deals with Colon cancer organoid. The experiment in a line: Image-based profiling of donated chemical probes and chemogenomic kinase set in O09 CRC organoid. Image analysis is performed on the sum area metric, and the data were normalized to the DMSO control. After imaging the organoid viability is measured using the OneGloEX Luciferase Assay System. The normalized viability data and sum area are reported.

Experiment [3] concerns Colon cancer organoid. Kind of experiment: Image-based profiling of donated chemical probes and chemogenomic kinase set in O21 CRC organoid. Image analysis is performed on the sum area metric, and the data were normalized to the DMSO control. After imaging the organoid viability is measured using the OneGloEX Luciferase Assay System. The normalized viability data and sum area are reported.

On to `CC1=C(C#N)C(c2ccc3[nH]nc(C)c3c2)C(C#N)=C(C)N1` [BAY-474], for which the “Cell Viability” value in the experiment on Colon cancer organoid [1] (Replication number 1) is 114.031% and 109.602%; in the experiment on Colon cancer organoid [1] (Replication number 2) it was 118.528% and 111.578%; in the experiment with Colon cancer organoid [2] (Replication number 1), 97.0801% and 99.3894%; in the experiment on Colon cancer organoid [2] (Replication number 2), 77.9563% and 84.1183%; in the experiment on Colon cancer organoid [3] (Replication number 1) it was 98.4176% and 90.2329%; in the experiment with Colon cancer organoid [3] (Replication number 2), 78.5633% and 94.3878%.

As to `COc1cccc2c1c(O)c(C(=O)N(C)c1ccc(C(F)(F)F)cc1)c(=O)n2C` [TASQUINIMOD], the “Cell Viability” value in the experiment with Colon cancer organoid [1] (Replication number 1) was 48.5879% and 75.1409%; with Colon cancer organoid [1] (Replication number 2) it was 109.678% and 108.736%; in the experiment on Colon cancer organoid [2] (Replication number 1), 111.782% and 95.2859%; in the experiment on Colon cancer organoid [2] (Replication number 2), 96.4426% and 87.5198%; in the experiment with Colon cancer organoid [3] (Replication number 1), 88.1859% and 108.165%; with Colon cancer organoid [3] (Replication number 2) it was 81.4636% and 102.566%.

Regarding `CNC(=O)c1cc(C(=O)N[C@H]2[C@@H]3COC[C@@H]32)cc2c1O[C@@H](CF)[C@@H]2c1ccccc1` [GSK943], the “Cell Viability” value in the experiment on Colon cancer organoid [1] (Replication number 1) was 114.013% and 124.372%; in the experiment with Colon cancer organoid [1] (Replication number 2), 80.0063% and 92.9841%; in the experiment with Colon cancer organoid [2] (Replication number 1), 64.3424% and 103.726%; in the experiment on Colon cancer organoid [2] (Replication number 2), 87.7458% and 93.3783%; in the experiment on Colon cancer organoid [3] (Replication number 1), 93.124% and 115.133%; with Colon cancer organoid [3] (Replication number 2), 103.782% and 108.09%.

As to `N#Cc1cnc(Nc2cc(NC[C@H]3CNCCO3)c(C(F)(F)F)cn2)cn1` [SRA-737], the “Cell Viability” value with Colon cancer organoid [1] (Replication number 1) was 47.9437% and 94.589%; in the experiment with Colon cancer organoid [1] (Replication number 2), 63.1754% and 83.4961%; with Colon cancer organoid [2] (Replication number 1) it was 93.3475% and 86.0215%; with Colon cancer organoid [2] (Replication number 2), 90.1274% and 73.6966%; with Colon cancer organoid [3] (Replication number 1), 21.4207% and 61.8815%; in the experiment on Colon cancer organoid [3] (Replication number 2) it was 26.4159% and 74.8471%.

Regarding `Cc1c(NC(=O)c2ccc(C(C)(C)C)cc2)cccc1-c1cn(C)c(=O)c(Nc2ccc(C(=O)N3CCOCC3)cc2)n1`, the “Cell Viability” value is 119.85% and 118.543% with Colon cancer organoid [1] (Replication number 1); 84.412% and 97.7895% with Colon cancer organoid [1] (Replication number 2); 87.7094% and 99.5999% with Colon cancer organoid [2] (Replication number 1); 109.316% and 107.058% with Colon cancer organoid [2] (Replication number 2); 86.5232% and 101.491% with Colon cancer organoid [3] (Replication number 1); 97.7388% and 99.4222% in the experiment on Colon cancer organoid [3] (Replication number 2).
